Reference: patent US11369607B2, “Compositions, systems, and methods for generating inner ear hair cells for treatment of hearing loss” (Massachusetts Institute of Technology, priority 2014, dated 2022)
Entries after “also recorded” stand apart in the source; their conditions may differ.

Key:
[1] = tested on: Lgr5+ supporting cells isolated from the cochlea; experiment: Expansion of Lgr5-GFP inner ear progenitor cells in Matrigel based 3D culture; type: cell-based, mouse; conditions: for GFP+ cell number / GFP+ percentage: named factor removed from EFICVP6, 10 days; for Lgr5-GFP expression, effect of addition / cell proliferation, effect of addition: neonatal Lgr5 inner ear progenitor cells
Description: Cell culture: Heterozygous Lgr5-EGFP-IRES-CreERT2 mice were obtained from Jackson Labs, and neonatal P2-P5 mice were used for cell isolation. Organ of Corti was isolated from Lgr5-GFP mice and further dissociated into single cells using trypsin. Cells were then cultured as previously described (Yin et al, 2014). Briefly, cells were entrapped in Matrigel and plated at the center of wells in a 24-well plate. Following polymerization of Matrigel, 500 μl of culture media (Advanced DMEM/F12 with N2 and B27) was added, containing growth factors including EGF (50 ng/ml) (epidermal growth factor), bFGF (20 ng/ml) (fibroblast growth factor), and IGF1 (50 ng/ml) (insulin-like growth factor 1), and small molecules including CHIR99021 (5 μM), valproic acid (1 mM), 2-phospho-L-ascorbic acid (280 μM), and 616452 (2 μM). Y-27632 (10 μM) was added for the first 2 days. In some experiments, bFGF was used at 50 ng/ml.
For single cell isolation, the organs of Corti were then treated with Cell Recovery Solution (Corning) for 1 h to separate cochlear epithelium from the underlying mesenchyme. Epithelia were then collected and treated with Trypsin (Life Technologies) for 15-20 minutes at 37° C. Single cells obtained by mechanical trituration were filtered by cell strainer (40 μm) and washed with cell culture media. For FACS sorting of Lgr5-high and Lgr5-Low cells, FACS ARIA (BD) was used and Lgr5-GFP was used as indicator of Lgr5 level. Sorted single cells were cultured in Matrigel in inner ear cell culture media with supplement growth factors and small molecules. Y-27632 was added in the first 2 days.
FACS analysis: Cell culture media was removed and Trypsin was added. After incubation at 37° C. for 10-20 min, colonies were dissociated into single cells. Live-cell number were counted using a hemocytometer and trypan blue staining. The cells were then stained with propidium iodide (PI) and analyzed with flow cytometry. The number of GFP-positive cells was calculated by multiplying the total number of cells by the percentage of GFP-positive cells.

[2] = tested on: Atoh1-GFP inner ear epithelial cells; experiment: Spontaneous hair cell differentiation of cultured Atoh1-nGFP inner ear epithelial cells; type: cell-based, mouse
[3] = tested on: expanded Lgr5-positive cells; experiment: Differentiation of expanded Lgr5-positive cells to hair cells; type: cell-based, mouse; conditions: in differentiation media
Description: Differentiation protocol: For differentiation of expanded Lgr5-positive cells, following 10 days of culture in the cell expansion condition (EFICVP6), the cell colonies were transferred to fresh Matrigel and further cultured in differentiation media. Differentiation media contains Notch pathway inhibitor (e.g. DAPT, D, 5 μM, or LY411575, LY, 5 μM), with or without Gsk3β inhibitor (e.g. CHIR99021). Media were changed every other day. Following another 6-10 days of incubation with differentiation media, the colonies were harvested for qPCR analysis or fixed with 4% PFA and immunostained with hair cell markers Myo7a and Prestin.
RNA extraction and quantitative real-time PCR (qPCR): RNA was isolated from cultured cells (RNeasy Mini Kit; Qiagen) according to the manufacturer's protocol. Quantitative real-time PCR was performed with QuantiTect Probe PCR kit (Qiagen) using commercially available primers and TaqMan probes (Myo7a and Hprt Life Technologies).
Immunocytochemistry staining: Colonies were fixed at room temperature in 4% paraformaldehyde/PBS for 15-20 min and then washed twice with PBS containing 0.1% BSA. Cells were then permeabilized with 0.25% Triton X-100 in PBS in 4° C. for 30 minutes. Following 2 washes with PBS containing 0.1% BSA, the cells were incubated with blocking solution (Power Block, Biogenex) for 1 h. Diluted primary antibodies (in Power Block solution) was applied for 4 h at room temperature or overnight at 4° C. Primary antibodies used were Myosin VIIA (1:500, Rabbit polyclonal from Proteus Biosciences) and Prestin (1:400, Goat polyclonal from Santa Cruz). After 3 washes for 5 minutes each, secondary antibodies (Alexafluor 594 and 647-conjugated; Invitrogen) were added at 1:500 dilution and incubated at room temperature for 30 minutes. Nuclei were visualized with 4,6-diamidino-2-phenylindole (DAPI, Vector Laboratories). Staining was visualized with inverted fluorescence microscope (EVOS; Advanced Microscopy Group).

[4] = In vitro drug release from poloxamer-407 hydrogel (dialysis bag method); type: physicochemical; conditions: for initial burst release / cumulative release: pH 7.4, 37° C.; for cumulative release: in 48 h
Description: To understand the release kinetics of encapsulated drugs from poloxamer-407 hydrogels, in vitro release studies were performed using dialysis bag method at pH 7.4 and 37° C. temperature conditions. Briefly, sealed dialysis bag (3.5-5 kDa cutoff) containing 30 μL gel suspended in 1 ml PBS was placed in 10 mL of the release medium (PBS). The release medium was stirred at 100 rpm to prevent the formation of a stagnant layer at the membrane and outer solution interface. 1 mL aliquots were taken from the medium at predetermined intervals for the analysis of drugs using HPLC, and replaced with an equal volume of fresh medium.

CBA/CaJ mice = experiment: Hearing recovery in noise-deafened mice (auditory brainstem responses); type: in vivo, mouse; conditions: 5, 10, 20, 28.3 and 40 kHz, p<0.05
Description: A 17% (w/w) stock solution of poloxamer 407 gel (Sigma-Aldrich) was prepared by slowly adding it to cold 1× phosphate-buffered saline at pH 7.4. This solution is liquid when refrigerated or at room temperature but solidifies at body temperature. The gel was tinted blue with Evans blue dye (50 ppm) for visualization during administration.
A formulation was prepared as described in Example 4 with 527 mM VPA and 2.975 mM CHIR in 17% Poloxamer 407 with 5% DMSO (“VPA/CHIR”). For comparison, a Notch inhibitor, LY411575, was prepared at 4 mM in 17% Poloxamer 407 with 5% DMSO (“LY411575”). Additionally, a vehicle-only control of 17% Poloxamer 407 with 5% DMSO was prepared (“Control”).
CBA/CaJ mice were deafened in a noise chamber by exposure to an 8-16 kHz octave band noise band for 2 hours at 120 dB SPL. 24 hours after noise exposure, their hearing was assessed by measuring auditory brainstem responses (ABRs). The minimum sound pressure level (SPL) required for visual detection of ABR Wave I was determined at 5, 10, 20, 28.3, and 40 kHz. Following ABR measurements, a trans-tympanic injection of a Poloxamer gel drug mixture (described above as “VPA/CHIR”, “LY411575”, or “Control”) was delivered to fill the middle ear cavity. After 30 days, ABR was assessed and the improvement in hearing threshold from 24 hrs to 30 days after noise exposure was determined.

[5] = Thermal gelation of poloxamer-407 formulations (visual tube inversion method); type: physicochemical
Description: Poloxamer-407 hydrogels were prepared using the “cold-method”. Briefly, a weighed amount of poloxamer-407 was added to 40 ml cold ultra pure water or cold PBS (pH 7.4), and stirred overnight at 4° C. on a magnetic stir plate to effect complete solubilization. Multiple concentrations of poloxamer-407 solution ranging from 18% (w/w) to 25% (w/w) were prepared. Hydrophilic drugs, including valproic acid (VPA) and phosphorylated ascorbic acid (PAC) were added to the 5 ml poloxamer-407 solution and dissolved at 4° C. on a magnetic stir plate. Weight ratio of poloxamer-407 to the drug was varied to understand the effects of drugs on the gelation properties of poloxamer-407, and to determine the optimal formulation that gels at 37° C. with maximum possible loading of the hydrophilic drugs. The gelation temperatures of the formulations were determined by the “visual tube inversion method”. Briefly, glass vials containing poloxamer 407 solutions, with or without the hydrophilic drugs were placed in a water bath.
To encapsulate hydrophobic drugs, including CHIR 99021 (CHIR), Repsox and TTNPB, appropriate volumes from their stock solutions in DMSO were added into the poloxamer-407 solutions containing the hydrophilic drugs, and mixed by pipetting at 4° C. […] Gelation temperature of the formulation was determined by the “visual tube inversion method”, as described before.

[6] = tested on: Lgr5 inner ear cells from adult mice; experiment: Expansion of Lgr5-GFP inner ear cells from adult mice; type: cell-based; conditions: adult mouse
Description: FIGS. 13A-C depict In vitro culture of Lgr5-GFP inner ear progenitor cells from adult mouse. FIG. 13A: Isolated cochlear from 9-week old mice was cultured in the presence of EFICVP6 for 9 days. Showing out-growth of Lgr5-GFP cells. FIG. 13B: The same culture at day 13. Showing expansion of Lgr5-GFP cells. FIG. 13C: Passage 2 of the same culture at day 5 after passage (Day 19). All scale bars: 100 μm. Specifically, cochlear was isolated from 9-week old adult mice, directly mixed with Matrigel and plated at the center of well of a 24-well plate. Cell culture medium in the presence of EGF, bFGF, IGF-1, CHIR99021, VPA, L-Ascorbic acid 2-phosphate (pVc) and a TGF-β RI Kinase Inhibitor II (616452) was added following gelation of Matrigel. The tissue was cultured for 2 weeks until Lgr5-GFP cells expanded and form out-growth. After 2 weeks (Day 14) the tissue was then dissociated using trypsin, re-plated and further cultured.
For adult tissue, the stria vascularis was removed but the epithelium was not removed from the underlying mesenchyme due to the limited amount of intact cochlea that could be extracted. For adult cells, additional small molecule TTNPB (2 μM, Tocris) was added and the complete media contain EGF, bFGF, IGF-1, CHIR99021, VPA, pVc, 616452 and TTNPB.

[7] = factor removed from the culture medium
[8] = named factor removed, versus EFICVP6

SMILES | importance of the factor for Lgr5-GFP expression [1, 7] | importance of the factor for cell proliferation [1, 7] | GFP+ cell number [1] | GFP+ percentage [1] [%] | decrease of GFP+ cell number [1, 8] [fold] | decrease of GFP+ percentage [1, 8] [fold] | decrease of total cell number [1, 8] [fold] | differentiation to Atoh-1+ cells [2] | effect on differentiation of hair cells [3] | initial burst release ([4]; in 2 h) [%] | cumulative release [4] [%] | hearing recovery (CBA/CaJ mice) | Lgr5-GFP expression, effect of addition [1] | cell proliferation, effect of addition [1] | concentration that inhibited gelation of poloxamer-407 solution [5] | spontaneous differentiation of hair cells ([2]; Atoh1-nGFP mouse line, 7 days) | release kinetics [4] | initial burst release ([4]; in 0.5 h) [%] | GFP+ colony formation [6] | proliferation of adult Lgr5 cells [6]
Cc1c[nH]c(-c2cnc(NCCNc3ccc(C#N)cn3)nc2-c2ccc(Cl)cc2Cl)n1 [CHIR, 6-[[2-[[4-(2,4-dichlorophenyl)-5-(5-methyl-1H-imidazol-2-yl)-2-pyrimidinyl]amino]ethyl]amino]-3-pyridinecarbonitrile] | critical for cell proliferation and GFP expression; also recorded: greatly impacted GFP expression; also recorded: greatest effect on Lgr5 expression; also recorded: important to promote cell proliferation and GFP expression | critical for cell proliferation and GFP expression; also recorded: greatly impacted cell proliferation; also recorded: greatest effect on proliferation; also recorded: important to promote cell proliferation and GFP expression | ~65 cells | 1.3 | ~4000 | ~50 | ~100 | can promote differentiation to Atoh-1+ cells | increases the differentiation efficiency of a Notch inhibitor | 10 | 33 |  |  |  |  |  |  |  |  | 
C[C@H](NC(=O)[C@@H](O)c1cc(F)cc(F)c1)C(=O)N[C@@H]1C(=O)N(C)c2ccccc2-c2ccccc21 [LY411575, N-2((2S)-2-(3,5-difluorophenyl)-2-hydroxyethanoyl)-N 1-((7S)-5-methyl-6-oxo-6,7-dihydro-5H-dibenzo[b,d]azepin-7-yI)-1-alaninamide] |  |  |  |  |  |  |  |  |  |  |  | significant recovery at 10 kHz, 28.3 KHz, and 40 kHz |  |  |  |  |  |  |  | 
O=C1O[C@H]([C@@H](O)CO)C(O)=C1OP(=O)(O)O [pVc, 2-phospho-L-ascorbic acid] | greater impact on GFP maintenance; also recorded: greatly reduced Lgr5 expression; also recorded: important to promote GFP maintenance |  | 1.1×10^5 cells | 25 | 2 | 2 |  |  | inhibit the differentiation of hair cells |  |  |  | promoted GFP expression from Lgr5-GFP inner ear progenitor cells; also recorded: promotes GFP expression | increases cell proliferation of Lgr5 inner ear progenitor cells | > 14000 µg/mL |  |  |  |  | 
CCCC(CCC)C(=O)O [VPA, 2-propylpentanoic acid] | important for GFP expression; also recorded: greater impact on GFP maintenance; also recorded: greatly reduced Lgr5 expression; also recorded: important to promote GFP maintenance |  |  | 28 | 2 | 2 |  |  | inhibit the differentiation of hair cells |  | 98 |  |  |  | greater than 88 mg/ml | inhibited the differentiation of inner ear progenitor cells towards Atoh1 positive hair cells; also recorded: suppressed spontaneous differentiation of hair cells; also recorded: functions through suppressing differentiation | significantly faster as compared to that of CHIR | 17 |  | 
C/C(=C\c1ccc(C(=O)O)cc1)c1ccc2c(c1)C(C)(C)CCC2(C)C [TTNPB] |  |  |  |  |  |  |  |  |  |  |  |  | didn't increase GFP expression | increased cell proliferation; also recorded: slightly increased cell proliferation |  |  |  |  | formation of GFP^+ colonies | increase cell proliferation; also recorded: significantly promoted the proliferation of cultured cells; also recorded: promote the proliferation of adult Lgr5 inner ear progenitor cells
